Reference: patent US20260184707A1, “PHARMACEUTICAL COMPOUNDS FOR THE TREATMENT OF COMPLEMENT MEDIATED DISORDERS” (ALEXION PHARMACEUTICALS, INC., priority 2022, published 2026)

Molecular target: T1, Human complement C1s enzyme (Homo sapiens, UniProt P09871)
T1 construct: purified from human serum, Complement Technology, Inc; purchased Complement Technology, Inc; host or cells: human serum (plasma-derived native protein)
T1 sequence (P09871 438-688 limits assumed): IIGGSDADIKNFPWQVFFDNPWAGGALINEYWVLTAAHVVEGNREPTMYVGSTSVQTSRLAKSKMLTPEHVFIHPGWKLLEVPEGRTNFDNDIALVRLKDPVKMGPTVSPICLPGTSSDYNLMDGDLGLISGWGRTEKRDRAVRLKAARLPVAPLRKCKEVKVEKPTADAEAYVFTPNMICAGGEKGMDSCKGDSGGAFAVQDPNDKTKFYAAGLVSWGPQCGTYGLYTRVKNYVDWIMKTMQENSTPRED
T1 sequence (P09871 16-437 partner limits assumed): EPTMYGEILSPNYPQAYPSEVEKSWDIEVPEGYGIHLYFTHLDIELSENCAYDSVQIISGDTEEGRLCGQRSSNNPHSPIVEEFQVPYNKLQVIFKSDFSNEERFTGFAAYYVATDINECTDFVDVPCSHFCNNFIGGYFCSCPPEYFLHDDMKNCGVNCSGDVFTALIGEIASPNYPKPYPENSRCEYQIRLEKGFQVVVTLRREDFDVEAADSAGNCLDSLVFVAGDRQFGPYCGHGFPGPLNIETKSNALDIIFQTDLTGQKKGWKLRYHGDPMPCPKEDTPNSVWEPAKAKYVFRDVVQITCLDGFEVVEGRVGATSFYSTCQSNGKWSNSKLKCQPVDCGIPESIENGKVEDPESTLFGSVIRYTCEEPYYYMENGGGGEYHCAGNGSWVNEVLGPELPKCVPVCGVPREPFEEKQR
Assay: Human C1s enzyme assay
Type: biochemical
Settings: human complement C1s enzyme 1.16 nM, substrate Z-L-Lys-SBzl, A405; read-out: IC50 (Stars)
How it was run: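 Serum-purified human C1s (1.16 nM final) preincubated 5 min at room temperature with compound in 50 mM Tris, 1 M NaCl, pH 7.5. Z-L-Lys-SBzl and DTNB added at 100 μM each; A405 recorded every 30 s. IC50 from nonlinear regression of reaction rates versus compound concentration.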

IC50 [nM]	SMILES
< 100	Cc1ncc(NC(=O)c2coc(-c3ccccc3)n2)c(=O)n1CC(=O)NCc1cc2cnccc2[nH]1 [Compound 414, N-(1-(2-(((1H-pyrrolo[3,2-c]pyridine-2-yl)methyl)amino)-2-oxoethyl)-2-methyl-6-oxo-1,6-dihydropyrimidin-5-yl)-2-phenyloxazole-4-carboxamide]
100 to 1000	O=C(Cn1cncc(NC(=O)c2csc(-c3ccccc3)n2)c1=O)NCc1cc2cnccc2[nH]1 [Compound 393, N-(1-(2-(((1H-pyrrolo[3,2-c]pyridin-2-yl)methyl)amino)-2-oxoethyl)-6-oxo-1,6-dihydro-pyrimidin-5-yl)-2-phenyl-thiazole-4-carboxamide]
< 100	C[C@@H](Nc1cnc(-c2ccc(OCCCCCCCN)cc2)n(CC(=O)NCc2cc3cnccc3[nH]2)c1=O)c1ccc2oc3ccccc3c2c1 [Compound 451, (R)—N-((1H-Pyrrolo[3,2-c]pyridine-2-yl)methyl)-2-(2-(4-((7-aminoheptyl)oxy)phenyl)-5-((1-(dibenzo[b,d]furan-2-yl)ethyl)amino)-6-oxopyrimidin-1(6H)-yl)acetamide]
< 100	O=C(Cn1c(N2CCCCC2)cnc(NCc2noc(-c3ccccc3)n2)c1=O)NCc1cc2cnccc2[nH]1 [Compound 478, N-((1H-pyrrolo[3,2-c]pyridin-2-yl)methyl)-2-(2-oxo-3-(((5-phenyl-1,2,4-oxadiazol-3-yl)-methyl)amino)-6-(piperidin-1-yl)pyrazin-1(2H)-yl)acetamide]
< 100	C[C@@H](Nc1ncc(N2CCCC(O)C2)n(CC(=O)NCc2cc3cnccc3[nH]2)c1=O)c1ccc2oc3ccccc3c2c1 (stereo partly drawn) [Compound 424, N-((1H-pyrrolo[3,2-c]pyridin-2-yl)methyl)-2-(3-(((R)-1-(dibenzo[b,d]furan-2-yl)ethyl)-amino)-6-(3-hydroxypiperidin-1-yl)-2-oxopyrazin-1(2H)-yl)-acetamide]
< 100	Cc1ccc(-c2ncc(NCCCc3ccccc3)c(=O)n2CC(=O)NCc2cc3cnccc3[nH]2)c(F)c1 [Compound 437, N-((1H-pyrrolo[3,2-c]pyridin-2-yl)methyl)-2-(2-(2-fluoro-4-methylphenyl)-6-oxo-5-((3-phenylpropyl)amino)pyrimi-din-1(6H)-yl)acetamide]
< 100	C[C@@H](Nc1cnc(-n2cccc2)n(CC(=O)NCc2cc3cnccc3[nH]2)c1=O)c1ccc2oc3ccccc3c2c1 [Compound 397, (R)-N-((1H-pyrrolo[3,2-c]pyridin-2-yl)methyl)-2-(5-((1-(dibenzo[b,d]furan-2-yl)ethyl)-amino)-6-oxo-2-(1H-pyrrol-1-yl)pyrimidin-1(6H)-yl)acet-amide]

The next lines start with the compound.

SMILES	IC50 [nM]
O=C(Cn1c(-c2ccc(S(F)(F)(F)(F)F)cc2)ncc(NCc2ccc3oc4ccccc4c3c2)c1=O)NCc1cc2cnccc2[nH]1 [Compound 297, N-((1H-pyrrolo[3,2-c]pyridin-2-yl)methyl)-2-(5-((dibenzo [b,d]furan-2-ylmethyl)amino)-6-oxo-2-(4-(pentafluoro-lambda6-sulfaneyl)phenyl)pyr-imidin-1(6H)-yl)acetamide]	< 100
O=C(Cn1c(-c2ccc(O[C@@H]3CO[C@H]4[C@@H]3OC[C@H]4O)cc2)ncc(NC(=O)c2ccc(-c3ccccc3)s2)c1=O)NCc1cc2cnccc2[nH]1 [Compound 264, N-(1-(2-(((1H-pyrrolo[3,2-c]pyridin-2-yl)methyl)amino)-2-oxoethyl)-2-(4-(((3R,3aR,6R, 6aR)-6-hydroxyhexahydrofuro [3,2-b]furan-3-yl)oxy)phenyl)-6-oxo-1,6-dihydropyrimidin-5-yl)-5-phenylthiophene-2-carboxamide]	< 100
Cc1nc(-c2ccccc2)nc(OCC(=O)NCc2cc3cnccc3[nH]2)c1NCc1ccc2oc3ccccc3c2c1 [Compound 269, N-((1H-pyrrolo[3,2-c]pyridine-2-yl)methyl)-2-((5-((dibenzo[b,d]furan-2-ylmethyl)amino)-6-methyl-2-phenylpyrimidin-4-yl)oxy)acetamide]	> 1000
C[C@H](Nc1cnc(-c2ccc(S(F)(F)(F)(F)F)cc2)n(CC(=O)NCc2cc3cnccc3[nH]2)c1=O)c1ccc2oc3ccccc3c2c1 [Compound 296, (S)-N-((1H-pyrrolo[3,2-c]pyridin-2-yl)methyl)-2-(5-((1-(dibenzo[b,d]furan-2-yl)ethyl)-amino)-6-oxo-2-(4-(penta-fluoro-lambda6-sulfaneyl)-phenyl)pyrimidin-1(6H)-yl)-acetamide]	< 100
O=C(Cn1c(-c2ccccc2)ncc(NCCCc2ccc(C3(F)COC3)cc2)c1=O)NCc1cc2cnccc2[nH]1 [Compound 116, N-((1H-pyrrolo[3,2-c]pyridine-2-yl)methyl)-2-(5-((3-(4-(3-fluorooxetan-3-yl)phenyl)propyl)amino)-6-oxo-2-phenylpyrimidin-1(6H)-yl)acetamide]	< 100
C[C@@H](Nc1cnc(N2CCC(O)C2)n(CC(=O)NCc2cc3cnccc3[nH]2)c1=O)c1ccc2oc3ccccc3c2c1 (stereo partly drawn) [Compound 369, N-((1H-pyrrolo[3,2-c]pyridin-2-yl)methyl)-2-(5-(((R)-1-(dibenzo[b,d]furan-2-yl)ethyl)-amino)-2-(3-hydroxypyrroli-din-1-yl)-6-oxopyrimidin-1(6H)-yl)acetamide]	100 to 1000
O=C(Cn1c(N2CCCCC2)ncc(NCc2ccc3oc4ccccc4c3c2)c1=O)NCc1cc2cnccc2[nH]1 [Compound 261, N-((1H-pyrrolo[3,2-c]pyridin-2-yl)methyl)-2-(5-((dibenzo [b,d]furan-2-ylmethyl)amino)-6-oxo-2-(piperidin-1-yl)pyrimi-din-1(6H)-yl)acetamide]	< 100
C[C@@H](Nc1cnc(N2CC3(C2)CC(F)(F)C3)n(CC(=O)NCc2cc3cnccc3[nH]2)c1=O)c1ccc2oc3ccccc3c2c1 [Compound 374, (R)-N-((1H-pyrrolo[3,2-c]pyridin-2-yl)methyl)-2-(5-((1-(dibenzo[b,d]furan-2-yl)ethyl)-amino)-2-(6,6-difluoro-2-aza-spiro[3.3]heptan-2-yl)-6-oxo-pyrimidin-1(6H)-yl)acetamide]	> 1000
C[C@@H](Nc1cnc(N2CCOCC2)n(CC(=O)NCc2cc3cnccc3[nH]2)c1=O)c1ccc2oc3ccccc3c2c1 [Compound 344, (R)-N-((1H-pyrrolo[3,2-c]pyridin-2-yl)methyl)-2-(5-((1-(dibenzo[b,d]furan-2-yl)ethyl)-amino)-2-morpholino-6-oxo-pyrimidin-1(6H)-yl)acetamide]	< 100
Cn1cc(-c2ncc(NCc3ccc4oc5ccccc5c4c3)c(=O)n2CC(=O)NCc2cc3cnccc3[nH]2)cn1 [Compound 287, N-((1H-pyrrolo[3,2-c]pyridin-2-yl)methyl)-2-(5-((dibenzo [b,d]furan-2-ylmethyl)amino)-2-(1-methyl-1H-pyrazol-4-yl)-6-oxopyrimidin-1(6H)-yl)-acetamide]	< 100
C[C@@H](Nc1cnc(-c2ccccc2F)n(CC(=O)NCc2cc3cnccc3[nH]2)c1=O)c1ccc2c(c1)oc1ccccc12 [Compound 350, (R)—N-((1H-pyrrolo[3,2-c]pyridine-2-yl)methyl)-2-(5-((1-(dibenzo[b,d]furan-3-yl)ethyl)amino)-2-(2-fluorophenyl)-6-oxopyrimidin-1(6H)-yl)acetamide]	< 100
C[C@@H](Nc1cnc(-c2ccccc2F)n(CC(=O)NCc2cc3cnccc3[nH]2)c1=O)c1ccc2oc3ccccc3c2c1 [Compound 237, (R)-N-((1H-pyrrolo[3,2-c]pyr-idin-2-yl)methyl)-2-(5-((1-(dibenzo[b,d]furan-2-yl)ethyl)-amino)-2-(2-fluorophenyl)-6-oxopyrimidin-1(6H)-yl)acet-amide]	< 100
O=C(Cn1c(-c2ccc(S(F)(F)(F)(F)F)cc2)ncc(NCc2ccc(-c3ccccc3)cc2)c1=O)NCc1cc2cnccc2[nH]1 [Compound 298, N-((1H-pyrrolo[3,2-c]pyridin-2-yl)methyl)-2-(5-(([1,1′-biphenyl]-4-ylmethyl)amino)-6-oxo-2-(4-(pentafluoro-lambda6-sulfaneyl)phenyl)pyr-imidin-1(6H)-yl)acetamide]	< 100
C[C@@H](Nc1cnc(-c2ccc(S(F)(F)(F)(F)F)cc2)n(CC(=O)NCc2cc3cnccc3[nH]2)c1=O)c1ccc2oc3ccccc3c2c1 [Compound 345, (R)-N-((1H-pyrrolo[3,2-c]pyridin-2-yl)methyl)-2-(5-((1-(dibenzo[b,d]furan-2-yl)ethyl)-amino)-6-oxo-2-(4-(penta-fluoro-lambda6-sulfaneyl)-phenyl)pyrimidin-1(6H)-yl)-acetamide]	< 100
NS(=O)(=O)COc1ccc(-c2ncc(NCCCc3ccccc3)c(=O)n2CC(=O)NCc2cc3cnccc3[nH]2)cc1 [Compound 67, N-((1H-pyrrolo[3,2-c]pyridine-2-yl)methyl)-2-(6-oxo-5-((3-phenylpropyl)amino)-2-(4-(sulfamoylmethoxy)phenyl)pyrimidin-1(6H)-yl)acetamide]	< 100
